The nature of experiment [1]: DRUGMATRIX: Nicotinic Acetylcholine radioligand binding (ligand: [125I] Epibatidine). The class given is cell membranes, Membrane. The following applies: imr-32; Not Active = under 50% inhibition at 10 µM.
In experiment [2] the target is Sodium-dependent dopamine transporter (Homo sapiens, UniProt Q01959). Kind of experiment: DRUGMATRIX: Dopamine Transporter radioligand binding (ligand: [125I] RTI-55). The following applies: Not Active = under 50% inhibition at 10 µM. It is filed as cell membranes, CHO-K1, Membrane.
In another experiment the target is T1, Estrogen receptor (Homo sapiens, UniProt P03372). Also: in other assays of this panel Not Active means under 50% inhibition at 10 µM.
T1 sequence (P03372 whole entry): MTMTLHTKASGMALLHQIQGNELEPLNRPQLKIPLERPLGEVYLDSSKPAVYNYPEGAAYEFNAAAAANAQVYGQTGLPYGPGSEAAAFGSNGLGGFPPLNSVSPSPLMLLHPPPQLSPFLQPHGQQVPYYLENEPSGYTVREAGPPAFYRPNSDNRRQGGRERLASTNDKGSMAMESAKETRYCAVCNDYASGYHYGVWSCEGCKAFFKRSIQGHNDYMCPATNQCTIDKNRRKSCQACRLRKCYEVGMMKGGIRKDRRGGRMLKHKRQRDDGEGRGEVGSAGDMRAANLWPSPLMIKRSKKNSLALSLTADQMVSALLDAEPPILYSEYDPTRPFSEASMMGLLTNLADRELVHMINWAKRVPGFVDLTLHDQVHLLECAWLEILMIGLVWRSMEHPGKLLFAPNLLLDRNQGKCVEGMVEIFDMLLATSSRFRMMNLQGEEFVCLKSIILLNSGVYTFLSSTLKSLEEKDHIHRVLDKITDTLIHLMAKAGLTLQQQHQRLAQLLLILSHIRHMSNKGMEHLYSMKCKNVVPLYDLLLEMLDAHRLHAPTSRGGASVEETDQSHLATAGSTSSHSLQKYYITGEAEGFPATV
The following applies: sf9.

The target in another experiment is T2, Caspase-1 (Homo sapiens, UniProt P29466).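 Also: Caspase-1 enzyme inhibition assay with a peptide substrate; in other assays of this panel Not Active means under 50% inhibition at 10 µM.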
T2 sequence (P29466 whole entry): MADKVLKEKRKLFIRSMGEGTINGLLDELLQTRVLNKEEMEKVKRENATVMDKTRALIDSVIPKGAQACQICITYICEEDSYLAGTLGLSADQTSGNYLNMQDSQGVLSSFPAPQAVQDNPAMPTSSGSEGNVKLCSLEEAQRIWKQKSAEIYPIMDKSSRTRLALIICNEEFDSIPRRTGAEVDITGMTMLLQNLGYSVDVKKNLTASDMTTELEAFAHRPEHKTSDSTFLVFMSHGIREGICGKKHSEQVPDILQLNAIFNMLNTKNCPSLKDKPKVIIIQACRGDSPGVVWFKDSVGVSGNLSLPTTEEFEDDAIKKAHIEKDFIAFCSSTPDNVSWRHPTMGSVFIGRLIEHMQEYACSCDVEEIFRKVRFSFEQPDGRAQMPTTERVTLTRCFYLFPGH
Also noted: species or system Escherichia coli.

Experiment [3] in a line: DRUGMATRIX: Leukotriene, BLT (LTB4) radioligand binding (ligand: [3H]LTB4). It is filed as cell membranes, Membrane. The following applies: u-937; Not Active = under 50% inhibition at 10 µM.
The target of experiment [4] is T3, 5-hydroxytryptamine receptor 1A (Rattus norvegicus, UniProt P19327). Also: in other assays of this panel Not Active means under 50% inhibition at 10 µM.
T3 sequence (P19327 whole entry): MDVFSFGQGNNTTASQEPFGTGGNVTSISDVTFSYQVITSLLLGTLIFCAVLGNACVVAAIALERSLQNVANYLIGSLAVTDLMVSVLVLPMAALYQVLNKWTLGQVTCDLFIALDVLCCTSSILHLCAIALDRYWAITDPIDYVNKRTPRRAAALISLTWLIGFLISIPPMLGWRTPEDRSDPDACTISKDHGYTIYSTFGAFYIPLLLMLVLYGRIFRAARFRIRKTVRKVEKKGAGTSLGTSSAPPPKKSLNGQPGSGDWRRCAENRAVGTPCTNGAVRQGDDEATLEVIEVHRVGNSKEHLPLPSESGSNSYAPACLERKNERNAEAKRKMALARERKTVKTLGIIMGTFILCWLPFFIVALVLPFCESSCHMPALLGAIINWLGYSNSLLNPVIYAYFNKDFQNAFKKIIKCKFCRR
The class given is cell membranes, CHO-K1, Membrane.

For experiment [5], the target named is Platelet-activating factor receptor (Homo sapiens, UniProt P25105). The class given is tissue-based. Also: in other assays of this panel Not Active means under 50% inhibition at 10 µM.

For 15 compounds, IC50 and Ki results are on record in ChEMBL document CHEMBL1909046, “DrugMatrix in vitro pharmacology data”.

*1 amine or outer side, *2 acyl side, *3 side chain or, on linkers, in order; H or OH if unused. Where a SMILES comes first, the peptide text is derived from it. Bridges are numbered along the chain shown (N, C = ends). Roman numbers before positions name the chains, in order. [ ]: non-standard residue; d: D form. Actinocin(1to9) = Cc1c2oc3c(C)ccc(C(=O)[*:2])c3nc-2c(C(=O)[*:1])c(N)c1=O; NMeV = CN[C@H](C(=O)O)C(C)C; Sar = CNCC(=O)O

Platelet-activating factor receptor, sequence (P25105 whole entry): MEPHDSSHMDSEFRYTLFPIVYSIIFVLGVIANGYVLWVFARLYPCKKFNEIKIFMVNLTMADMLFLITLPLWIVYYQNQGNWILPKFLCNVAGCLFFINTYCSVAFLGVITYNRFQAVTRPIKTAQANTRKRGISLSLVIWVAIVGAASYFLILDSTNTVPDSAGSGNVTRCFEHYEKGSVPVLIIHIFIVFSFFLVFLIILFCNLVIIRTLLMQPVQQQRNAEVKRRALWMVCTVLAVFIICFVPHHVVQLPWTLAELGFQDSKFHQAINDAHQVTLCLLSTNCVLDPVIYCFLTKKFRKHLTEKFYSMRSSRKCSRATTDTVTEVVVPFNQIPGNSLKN
Sodium-dependent dopamine transporter, sequence (Q01959 whole entry): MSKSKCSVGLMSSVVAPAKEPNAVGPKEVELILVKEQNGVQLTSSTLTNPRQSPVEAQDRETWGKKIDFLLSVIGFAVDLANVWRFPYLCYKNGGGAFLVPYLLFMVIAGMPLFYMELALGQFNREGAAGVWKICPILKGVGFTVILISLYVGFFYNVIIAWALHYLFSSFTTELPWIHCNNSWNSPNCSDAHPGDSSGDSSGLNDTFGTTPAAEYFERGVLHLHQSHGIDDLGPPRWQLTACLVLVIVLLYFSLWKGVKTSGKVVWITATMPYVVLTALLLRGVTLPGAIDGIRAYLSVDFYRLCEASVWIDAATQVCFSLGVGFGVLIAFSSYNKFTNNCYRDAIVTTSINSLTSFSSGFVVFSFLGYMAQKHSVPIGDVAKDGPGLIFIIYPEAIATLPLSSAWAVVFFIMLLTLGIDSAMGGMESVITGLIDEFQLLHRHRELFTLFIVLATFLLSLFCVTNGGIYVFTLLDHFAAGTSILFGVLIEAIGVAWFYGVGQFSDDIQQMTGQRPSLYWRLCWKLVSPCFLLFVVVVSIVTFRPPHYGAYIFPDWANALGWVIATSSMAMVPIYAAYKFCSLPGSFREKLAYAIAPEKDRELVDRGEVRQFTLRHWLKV

By IC50 is commonly meant the concentration that gives 50% inhibition. As usually defined, the Ki is a measure of affinity in units of concentration, obtained from inhibition or displacement. As for `O=C(CCCN1CC=C(n2c(=O)[nH]c3ccccc32)CC1)c1ccc(F)cc1` [DROPERIDOL], the IC50 entry in experiment [1] was “Not Active”; in experiment [2] (cho-k1), “Not Active”; against Estrogen receptor it was “Not Active”; against Caspase-1 it was “Not Active”; in experiment [3], “Not Active”; in experiment [4] (read-out: IC50) it was 242 nM. The IC50 entry in experiment [5] is given as “Not Active”. The inhibition constant Ki entry in experiment [1] is “Not Active”; in experiment [3], “Not Active”; in experiment [4] (read-out: Ki) it was 138 nM.

For the compound CADMIUM ACETATE, the IC50 entry (in experiment [1]; in experiment [2] (cho-k1); on Estrogen receptor; at Caspase-1; in experiment [3]; in experiment [4] (cho-k1)) was “Not Active” throughout. The IC50 result in experiment [5] is given as “Not Active”. The Ki result (in experiment [1]; in experiment [2] (cho-k1); at Estrogen receptor; on Caspase-1; in experiment [3]; in experiment [4] (cho-k1)) was “Not Active” throughout. Besides, in experiment [5], the Ki entry is “Not Active”.

Regarding `CC(C)[C@@]1(NC(=O)[C@@H]2C[C@@H]3c4cccc5[nH]cc(c45)C[C@H]3N(C)C2)O[C@@]2(O)[C@@H]3CCCN3C(=O)[C@H](Cc3ccccc3)N2C1=O.CS(=O)(=O)O` [DIHYDROERGOCRISTINE MESYLATE], the IC50 entry was “Not Active” in experiment [1]; “Not Active” in experiment [2] (cho-k1); “Not Active” on Estrogen receptor; “Not Active” on Caspase-1; “Not Active” in experiment [3]; 0.722 nM in experiment [4] (read-out: IC50). In addition, the IC50 result in experiment [5] was “Not Active”. Also, the values for the Ki entry in experiment [1], in experiment [3] and in experiment [4] (read-out: Ki) were “Not Active”, “Not Active” and 0.412 nM, respectively.

As for LIPOPOLYSACCHARIDE E. COLI O55:B5, the IC50 entry (in experiment [1]; in experiment [2] (cho-k1); against Estrogen receptor; against Caspase-1; in experiment [3]; in experiment [4] (cho-k1)) was “Not Active” in each case. In addition, the IC50 result in experiment [5] is reported as “Not Active”. Besides, the Ki entry (in experiment [1]; in experiment [2] (cho-k1); on Estrogen receptor; at Caspase-1; in experiment [3]; in experiment [4] (cho-k1)) was “Not Active” in each case. The Ki result in experiment [5] is on record as “Not Active”.

For `Nc1c(Br)cc(Br)cc1CN[C@H]1CC[C@H](O)CC1` [AMBROXOL], the IC50 result (in experiment [1]; in experiment [2] (cho-k1); against Estrogen receptor; against Caspase-1; in experiment [3]; in experiment [4] (cho-k1)) was “Not Active” throughout. Besides, in experiment [5], the IC50 entry was “Not Active”. Besides, the Ki entry in experiment [1] and in experiment [3] was “Not Active” throughout.

For the compound `NCCCCCC(=O)O` [AMINOCAPROIC ACID], the IC50 entry (in experiment [1]; in experiment [2] (cho-k1); against Estrogen receptor; against Caspase-1; in experiment [3]; in experiment [4] (cho-k1)) was “Not Active” each time. The IC50 entry in experiment [5] is “Not Active”. Also, the Ki entry in experiment [1] and in experiment [3] was “Not Active” in each case.

Consider `CCC(C)n1ncn(-c2ccc(N3CCN(c4ccc(OCC5COC(Cn6cncn6)(c6ccc(Cl)cc6Cl)O5)cc4)CC3)cc2)c1=O` (stereo not drawn) [ITRACONAZOLE], for which the IC50 result (in experiment [1]; in experiment [2] (cho-k1); at Estrogen receptor; against Caspase-1; in experiment [3]; in experiment [4] (cho-k1)) was “Not Active” throughout. In addition, in experiment [5], the IC50 entry is reported as “Not Active”. In addition, the Ki entry in experiment [1] and in experiment [3] was “Not Active” in each case.

In the case of `Cc1c(C)c2c(c(C)c1O)CC[C@@](C)(CCC[C@H](C)CCC[C@H](C)CCCC(C)C)O2` [ALPHA-TOCOPHEROL], the IC50 entry (in experiment [1]; in experiment [2] (cho-k1); against Estrogen receptor; against Caspase-1; in experiment [3]; in experiment [4] (cho-k1)) was “Not Active” in each case. Moreover, the IC50 result in experiment [5] was “Not Active”. Further, the Ki result in experiment [1] and in experiment [3] was “Not Active” each time.

On to `Cc1cc(C(C#N)c2ccc(Cl)cc2)c(Cl)cc1NC(=O)c1cc(I)cc(I)c1O` (stereo not drawn) [CLOSANTEL], for which the IC50 result in experiment [1] was “Not Active”; in experiment [2] (read-out: IC50), 4800 nM; at Estrogen receptor it was “Not Active”; against Caspase-1, “Not Active”; in experiment [3], “Not Active”; in experiment [4] (cho-k1) it was “Not Active”. In addition, in experiment [5], the IC50 result was “Not Active”. The values for the Ki result in experiment [1], in experiment [2] (read-out: Ki) and in experiment [3] were “Not Active”, 3800 nM and “Not Active”, respectively.

With `Cc1ccc(/N=C/N(C)/C=N/c2ccc(C)cc2C)c(C)c1` [AMITRAZ], the IC50 entry (in experiment [1]; in experiment [2] (cho-k1); against Estrogen receptor; against Caspase-1; in experiment [3]; in experiment [4] (cho-k1)) was “Not Active” throughout. For the same compound, the IC50 entry in experiment [5] is on record as “Not Active”. Also, the Ki result in experiment [1] and in experiment [3] was “Not Active” in each case.

Turning to `Cc1ccc2cc3c(ccc4ccccc43)c3c2c1CC3` [3-METHYLCHOLANTHRENE], the IC50 result (in experiment [1]; in experiment [2] (cho-k1); against Estrogen receptor; at Caspase-1; in experiment [3]; in experiment [4] (cho-k1)) was “Not Active” in each case. In addition, the IC50 result in experiment [5] is reported as “Not Active”. Also, the Ki result in experiment [1] and in experiment [3] was “Not Active” each time.

In the case of `OC(Cn1cncn1)(Cn1cncn1)c1ccc(F)cc1F` [FLUCONAZOLE], the IC50 entry (in experiment [1]; in experiment [2] (cho-k1); against Estrogen receptor; on Caspase-1; in experiment [3]; in experiment [4] (cho-k1)) was “Not Active” throughout. For the same compound, the IC50 result in experiment [5] is reported as “Not Active”. For the same compound, the Ki entry in experiment [1] and in experiment [3] was “Not Active” throughout.

As for `Cc1c2oc3c(C)ccc(C(=O)N[C@@H]4C(=O)N[C@H](C(C)C)C(=O)N5CCC[C@H]5C(=O)N(C)CC(=O)N(C)[C@@H](C(C)C)C(=O)O[C@@H]4C)c3nc-2c(C(=O)N[C@@H]2C(=O)N[C@H](C(C)C)C(=O)N3CCC[C@H]3C(=O)N(C)CC(=O)N(C)[C@@H](C(C)C)C(=O)O[C@@H]2C)c(N)c1=O` [DACTINOMYCIN] (I: T[dV]P[Sar][NMeV] / II: T[dV]P[Sar][NMeV]; ester I:1-I:C, II:1-II:C; linker I:N-II:N via Actinocin(1to9)), the IC50 result (in experiment [1]; in experiment [2] (cho-k1); against Estrogen receptor; at Caspase-1; in experiment [3]; in experiment [4] (cho-k1)) was “Not Active” throughout. Besides, in experiment [5], the IC50 result is “Not Active”. For the same compound, the Ki result in experiment [1] and in experiment [3] was “Not Active” in each case.

For the compound `Nc1ncn([C@@H]2O[C@H](CO)[C@@H](O)[C@H]2O)c(=O)n1` [AZACITIDINE], the IC50 result (in experiment [1]; in experiment [2] (cho-k1); at Estrogen receptor; at Caspase-1; in experiment [3]; in experiment [4] (cho-k1)) was “Not Active” throughout. Further, the IC50 entry in experiment [5] is given as “Not Active”. Also, the Ki result in experiment [1] and in experiment [3] was “Not Active” each time.

For the compound `Cc1cc(C2CCCCC2)n(O)c(=O)c1` [CICLOPIROX], the IC50 entry (in experiment [1]; in experiment [2] (cho-k1); against Estrogen receptor; against Caspase-1; in experiment [3]; in experiment [4] (cho-k1)) was “Not Active” each time. Moreover, the IC50 entry in experiment [5] was “Not Active”. For the same compound, the Ki result in experiment [1] and in experiment [3] was “Not Active” each time.
